Measured values reported in patent publication US20200378993A1, “MEDICAL USES OF APOLIPOPROTEIN A AND ACTIVATORS THEREOF” (FUNDACIÓN IMDEA ALIMENTACIÓN, priority 2017, published 2020).

Assays:
Format in all cases: cell-based, human
DLD1_ABCA1 cells = test: Cell viability and proliferation assay (XCELLigence); details: 40 μg/ml apolipoprotein A1 (72 hours before, 20 μg/ml during acquisition); DLD1_ABCA1 cells
Experimental: (§1) FIG. 6. A) Proliferation curve in a viability assay carried out by means of XCELLigence technology. The results for the stable cell line overexpressing ABCA1 in the absence and presence of ApoA1 are shown. The cells were treated for 72 hours before the experiment with 40 μg/ml of ApoA1 and with a concentration of 20 μg/ml during acquisition. B) Migration and invasion assays. The method followed was the same as the one described in FIG. 1. (**p-value=0.003; ****p-value<0.0001). C) ABCA1 messenger RNA level (left panel) and ABCA1 protein level (right panel) in the presence and absence of treatment with ApoA1. Results are shown both for the control cells and for those cells overexpressing the transporter.
Cell viability and proliferation assays were carried out by means of XCELLigence technology (ACEA Biosciences, Inc.) following the manufacturer's indications. Migration and invasion assays were carried out in Corning® BioCoat™ Control plates (#354578) and Corning® BioCoat™ Matrigel plates (#354480), respectively, following the manufacturer's indications. […]
(§2) The inventors were able to confirm said results based on the treatment of DLD1 cells expressing ABCA1 with RVX-208 under the conditions already described in detail in Example 3. […] The levels of caveolin-1, a protein whose increased levels have been associated with increases in cell migration and invasion, were also analyzed in this experiment.

DLD1 cells [1] = test: Invasion assay (Corning BioCoat Matrigel plates); details: ApoA1 40 μg/ml 72 hours before, 20 μg/ml during assay; DLD1 cells
Experimental: (§3) Cell viability and proliferation assays were carried out by means of XCELLigence technology (ACEA Biosciences, Inc.) following the manufacturer's indications. Migration and invasion assays were carried out in Corning® BioCoat™ Control plates (#354578) and Corning® BioCoat™ Matrigel plates (#354480), respectively, following the manufacturer's indications. For the rescue assays, the cells were treated for 72 hours with 30 μM apabetalone (RVX-208; Biovision). Antibodies: ABCA1 (Ab18180, Abcam. 1:500); caveolin-1 (Ab2910, Abcam. 1:1000); α-tubulin (T9026, Sigma 1:1000). The DLD1 cells correspond to a human colorectal cancer-derived adherent epithelial cell line (ATCC® CCL-221™). The stable cell lines capable of overexpressing ABCA1 were obtained by means of transduction with genetically modified lentivirus.
(§4) Following the same treatment regimen, the inventors carried out migration and invasion assays.
(§5) The same assays were repeated by replacing ApoA1 with a treatment with RVX-208. In this case, DLD1 cells were pre-treated for 72 hours before the start of the experiment with RVX-208 at a concentration of 30 μm and were subjected to a treatment with 15 μM of RVX-208 during the development of the experiments.
(§6) For the purpose of confirming that the effects of RVX-208 in cell phenotype recovery were due to the increase in ApoA-1 expression, the inventors inhibited the expression of said protein by means of transfection of a complementary small RNA, ShApoA1 (FIG. 9). Twenty-four hours after transfection with ShApoA1 expression vector, the inventors started treatment with 30 μM of RVX-208. Cell viability and proliferation in DLD1 cells (D_NoORF) and D1D1 cell lines expressing increased ApoA1 levels (D_ApoA1 ) were analyzed with the xCELLigence system.

[2] = test system: ABCA1 cholesterol transporter; test: ABCA1 messenger RNA and protein level after treatment
Experimental: as §1
FIG. 7. A) Proliferation curve in a viability assay carried out by means of XCELLigence technology. Growth of DLD1 cells treated with DMSO as the drug carrier and with Rvx-208 (30 μM). The significant differences existing in the slope of the graph, and therefore in the growth dynamics of the treated cells are shown in the right panel (****p-value<0.0001). B) Migration and invasion assays. The method followed was the same as the one described in FIG. 2 (*p-value=0.0407; ****p-value<0.0001). C) Expression levels of proteins E-cadherin and Vimentin in the presence and absence of Rvx-208. Analysis performed by means of quantitative PCR. The relative expression levels normalized with respect to the untreated control are shown. D) ABCA1, ApoA1, caveolin-1, and α-tubulin immunodetection by means of Western blot. α-tubulin acts as load control. The results of the cells treated with Rvx-208 (30 μM) or with the DMSO carrier are shown. E) Cholesterol flux in cells treated with Rvx-208.
as §3, with “The stable cell lines capable of overexpressing ABCA1 were obtained by means of transduction with genetically modified lentivirus.” left out
as §2

DLD1 cells [3] = test: Cell viability and proliferation assay (XCELLigence); details: ApoA1 40 μg/ml first dose of 72 hours, 20 μg/ml during result acquisition; DLD1 cells
Experimental: as §3, §4, §5, §6

DLD1 cells [4] = test: Migration assay (Corning BioCoat Control plates); details: ApoA1 40 μg/ml 72 hours before, 20 μg/ml during assay
Experimental: as §3, §4, §5

[5] = treatment with ApoA1, control cells and cells overexpressing ABCA1

With “ApoA1: apolipoprotein A1 protein administered to the cells” the proliferative capacity (DLD1_ABCA1 cells) was “dropped to levels that are comparable to the control situation”, the “capacity to invade the extracellular matrix” value (DLD1 cells [1]) was “reduced capacities” and the ABCA1 levels ([2]; direct treatment with ApoA1, as restated in Example 5 (FIG. 6C)) was “induces an increase in ABCA1 levels”. For the same substance, the “ABCA1 expression level, messenger RNA level” value [2, 5] was “significantly decreases the expression levels”, the “ABCA1 expression level, protein level” value [2, 5] was “significantly decreases the expression levels” and the cell proliferation (DLD1 cells [3]) was “significant decrease in cell proliferation”. The “capacity to migrate to the serum-rich region” value (DLD1 cells [4]) was “reduced capacities to migrate to the serum-rich region”.
